Measurements from US20040248821A1, “Composition for the treatment of lupus” (priority 2001, published 2004).
Entries after “also recorded” stand apart in the source; their conditions may differ.

Columns and labels:
[1] = system: patients with Lupus (SLE); assay: Treatment of human Lupus patients with the inventive composition (case reports); format: in vivo; settings: flavonoid replacing Quercetin in the inventive formula; limited tests
[2] = system: osteoarthritis or Lupus caused joint inflammation; settings: Bromelain alone; cited from earlier work

Row | Compound | Effectiveness of the flavonoid in the inventive formula (with Bromelain and Vitamin C) [1] | Ameliorating joint pain [2]
1 | O=c1cc(-c2ccc(O)c(O)c2)oc2cc(O)cc(O)c12 [Luteolin] | also effective; also recorded: somewhat more effective than Quercetin | –
2 | O=c1c(O)c(-c2cc(O)c(O)c(O)c2)oc2cc(O)cc(O)c12 [Myricetin] | also effective; also recorded: somewhat effective | –
3 | Bromelain | – | not effective
